According to US20050272040A1, “Method for increasing synaptic growth or plasticity” (priority 2002, published 2005):

Assays:
Hippocampal neurons = experiment: Western blot of VGF protein after BDNF treatment; assay type: cell-based, rat
Text: The products of the genes induced following learning may regulate neuronal plasticity at the single-cell level. VGF, like BDNF, is a secreted polypeptide and thus may be relevant for intercellular communication. A functional role for VGF in synaptic plasticity was thus investigated. To determine whether BDNF-induced transcriptional changes of VGF were accompanied by translational alterations, VGF levels were examined following BDNF treatment by western blot analysis. VGF, migrating as a doublet with an apparent molecular weight of 85-90 kD, increased by 1.5-fold within 3 hours of BDNF exposure. VGF protein levels were maximal at 12 hours and remained elevated for 48 hours of continuous BDNF application. Consequently, increased VGF mRNA levels after 3 hours BDNF treatment were associated with enhanced protein translation. VGF protein processing occurs in both neurons and neuroendocrine cells (Trani et al. (1995) J. Neurochem. 65:2441-2449; Salton et al. (2000) supra). The localization of VGF in dissociated hippocampal cultures was examined using a C-terminal antibody (R-15) which labeled both the soma and neurites indicating translocation to the neuronal processes. The expression of VGF was similar to that previously observed in primary neuronal cultures (Benson and Salton (1996) Brain Res. Dev. Brain Res. 96:219-228) and was punctate in appearance. This pattern is consistent with the regulated release of VGF from large dense core vesicles (Trani et al. (1995) supra; Benson and Salton (1996) supra; Possenti et al. (1999) Endocrinology 140:3727-3735) and indicates a physiological role for the peptide.
BDNF-treated and untreated hippocampal neurons plated in equal numbers were solubilized in lysis buffer (20 mM Tris pH 8, 0.5% Triton X-100, 0.5% SDS, protease inhibitor tablet, 1 mM PMSF, and 0.5 mM vanadate). The protein content was determined with the BCA protein assay kit (Pierce Chemical Co, Rockford, Ill.). […] The immunopositive bands were visualized by chemiluminescence using the ECL™ detection kit (NEN, Boston, Mass.), quantitated on a BIO-RAD Gel Doc and normalized to actin.

[1] = test system: individual hippocampal cells; experiment: Single-cell Arc expression (aRNA amplification, real-time RT-PCR) after patch-clamp; assay type: cell-based, rat; conditions: BDNF-treated cells, electrophysiologic responders (n=7) vs non-responders (n=9), p<0.05
Description: FIG. 1A presents Arc expression in individual BDNF-treated cells following electrophysiological recordings and aRNA amplification. Arc transcription was measured by real-time RT-PCR and then normalized to internal GAPDH levels. The data are then expressed as a ratio of the average Arc expression in the seven control cells (expression ratio). FIG. 1B presents a correlation of Arc expression ratios to individual cell's synaptic BDNF responses. Average synaptic charge 3 to 5 minutes post-BDNF exposure expressed as a fold increase over baseline (−2 to 0 minute) was plotted against Arc expression ratios shown in FIG. 1A. Each circle represents one BDNF-treated cell. The cell number next to the circle corresponds with the cell number in FIG. 1A. Dashed line depicts a correlation coefficient indicating significance (r=0.66., p<0.005). The data are categorized into two groups of BDNF-treated cells: a cluster of non-responders (shaded) and a spread of responders (clear).
The molecular genetics of differential synaptic responses to BDNF was examined by performing single-cell transcriptional analysis after whole-cell patch-clamp. […] FIG. 1A represents Arc expression in cells exposed to BDNF relative to the average Arc expression in cells not exposed to BDNF (control) as assessed by real-time RT-PCR (expression ratio). […]

Substance: BDNF: neurotrophin, 50 ng/ml, Preprotech; induces synaptic plasticity in hippocampal neurons
- Time VGF protein levels remained elevated (Hippocampal neurons; continuous BDNF application): 48 h
- Time of maximal VGF protein levels (Hippocampal neurons; continuous BDNF application): 12 h
- Increase in VGF protein (Hippocampal neurons; within 3 hours of BDNF exposure, western blot): 1.5 fold
- Increase in Arc expression, responders relative to non-responders [1]: 17 fold
